Assays:
Experiment in all cases: relative viability (nuclei count vs DMSO), 5 days (fraction); higher = more cells survive
Neratinib + Navitoclax = compound: CCOc1cc2ncc(C#N)c(Nc3ccc(OCc4ccccn4)c(Cl)c3)c2cc1NC(=O)/C=C/CN(C)C [Neratinib] + CC1(C)CCC(c2ccc(Cl)cc2)=C(CN2CCN(c3ccc(C(=O)NS(=O)(=O)c4ccc(N[C@H](CCN5CCOCC5)CSc5ccccc5)c(S(=O)(=O)C(F)(F)F)c4)cc3)CC2)C1 [Navitoclax] (partner 0.5 µM)
Method in brief: (§1)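 Lung cancer cell lines were pin-tool dosed in 1536-well plates on the day after seeding, with either a lone drug or a fixed anchor-drug dose plus five library-drug doses (not always all listed) in √10 steps. Nuclei were counted on 4× images after 5 days. Relative viability is the ratio of treated-well to vehicle-well nuclei counts, with each value a median of duplicate plates.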

Neratinib + Crizotinib = compound: CCOc1cc2ncc(C#N)c(Nc3ccc(OCc4ccccn4)c(Cl)c3)c2cc1NC(=O)/C=C/CN(C)C [Neratinib] + C[C@@H](Oc1cc(-c2cnn(C3CCNCC3)c2)cnc1N)c1c(Cl)ccc(F)c1Cl [Crizotinib] (partner 1 µM)
Method in brief: as §1

Neratinib + Dasatinib = compound: CCOc1cc2ncc(C#N)c(Nc3ccc(OCc4ccccn4)c(Cl)c3)c2cc1NC(=O)/C=C/CN(C)C [Neratinib] + Cc1nc(Nc2ncc(C(=O)Nc3c(C)cccc3Cl)s2)cc(N2CCN(CCO)CC2)n1 [Dasatinib] (partner 0.075 µM)
Method in brief: as §1

Neratinib + Vorinostat = compound: CCOc1cc2ncc(C#N)c(Nc3ccc(OCc4ccccn4)c(Cl)c3)c2cc1NC(=O)/C=C/CN(C)C [Neratinib] + O=C(CCCCCCC(=O)Nc1ccccc1)NO [Vorinostat] (partner 1 µM)
Method in brief: as §1

Cell Line	relative viability (Neratinib + Navitoclax; first compound 0.01 µM)	relative viability (Neratinib + Navitoclax; first compound 0.03162 µM)	relative viability (Neratinib + Navitoclax; first compound 0.1 µM)	relative viability (Neratinib + Navitoclax; first compound 0.3162 µM)	relative viability (Neratinib + Navitoclax; first compound 1 µM)	relative viability (Neratinib + Crizotinib; first compound 0.01 µM)	relative viability (Neratinib + Crizotinib; first compound 0.03162 µM)	relative viability (Neratinib + Crizotinib; first compound 0.1 µM)	relative viability (Neratinib + Crizotinib; first compound 0.3162 µM)	relative viability (Neratinib + Crizotinib; first compound 1 µM)	relative viability (Neratinib + Dasatinib; first compound 0.01 µM)	relative viability (Neratinib + Dasatinib; first compound 0.03162 µM)	relative viability (Neratinib + Dasatinib; first compound 0.1 µM)	relative viability (Neratinib + Dasatinib; first compound 0.3162 µM)	relative viability (Neratinib + Dasatinib; first compound 1 µM)	relative viability (Neratinib + Vorinostat; first compound 0.01 µM)	relative viability (Neratinib + Vorinostat; first compound 0.03162 µM)	relative viability (Neratinib + Vorinostat; first compound 0.1 µM)	relative viability (Neratinib + Vorinostat; first compound 0.3162 µM)	relative viability (Neratinib + Vorinostat; first compound 1 µM)
NCI-H1437	1.14	1.12	1.05	1	1.05	1.04	0.853	0.897	0.789	0.822	0.443	0.396	0.475	0.278	0.3	0.916	0.906	0.799	0.843	0.85
NCI-H2170	0.391	0.377	0.274	0.196	0.184	1.14	0.77	0.617	0.302	0.223	0.527	0.563	0.283	0.176	0.196	0.862	0.647	0.407	0.205	0.239
NCI-H460	1.37	1.3		1.11	0.441	1.2	0.743		0.641	0.355	0.524	0.527	0.446	0.455	0.317	0.779	0.984	0.429	0.716	0.518
NCI-H1993	0.911	0.986	0.815	0.651	0.574	0.859	0.901	0.586	0.771	0.677	0.638	0.607	0.558	0.589	0.575	1.07	0.795	0.423	0.676	0.574
BEN	0.0747	0.0585	0.0644	0.0753	0.0586	0.849	1.1	0.869	0.762	0.509	0.329	0.305	0.319	0.3	0.414	0.562	0.596	0.606	0.552	0.43
LC-2-ad	0.519	0.398	0.411	0.315	0.135	0.456	0.457	0.41	0.386	0.294	0.569	0.697	0.545	0.304	0.342	0.662	0.739	0.687	0.664	0.709
COR-L23	1.16	1.13	1.13	0.968	0.485	0.853	0.678	0.589	0.564	0.503	0.558	0.602	0.489	0.439	0.308	0.466	0.468	0.486	0.449	0.235
NCI-H1650	1.26	1.35	1.1	1.07	1.06	0.922	1.03	0.705	0.568	0.623	0.309	0.31	0.307	0.304	0.376	0.381	0.615	0.49	0.419	0.447
UMC-11	0.283	0.332	0.264	0.316	0.252	0.651	0.684	0.52	0.537	0.528	0.482	0.505	0.399	0.384	0.425	0.434	0.417	0.296	0.332	0.283
NCI-H1915	0.764	0.862	0.757	0.736	0.744	0.973	0.931	0.864	0.811	0.725	0.384	0.339	0.218	0.332	0.287	0.6	0.553	0.507	0.439	0.545
NCI-H2023	0.987	1.04	0.909	0.943	0.699	0.642	0.523	0.484	0.419	0.287	0.576	0.562	0.473	0.479	0.42	0.937	0.532	0.495	0.602	0.375
NCI-H2228	0.929	1.57	0.802	0.953	0.258	0.668	0.44	0.294	0.322	0.225	0.494	0.566	0.366	0.45	0.102	0.769	0.871	0.623	0.7	0.318
LXF-289	0.975	0.972	0.923		0.878	0.879	0.871	0.75	0.821	0.752	0.186	0.234	0.162	0.21	0.188	0.819	0.866	0.732	0.803	0.765
SK-LU-1	0.842	0.979		0.0386	0.523	1.05		0.848	0.604	0.402	0.174	0.175	0.168	0.195	0.173	0.805	0.878	0.728	0.651	0.421
HOP-62		1.07	1.1	0.996	1.1	1.07	1.05	0.806	0.932	0.958	0.636	0.67	0.602	0.686	0.676	0.608	0.691	0.586		0.72
SK-MES-1	1.38	1.3	1.06	0.651	0.432	1.02	0.998	0.969		0.314	0.375	0.25	0.163	0.14	0.14	1.12	1.08	1.05	0.925	0.29
NCI-H1666	0.971		0.685	0.311	0.347	1.29	1.13	0.579	0.595	0.566	0.842	0.887	0.701	0.581	0.586	1.14	1.08	0.901	0.879	0.87

Cell Line	relative viability (Neratinib + Navitoclax; first compound 0.01 µM)	relative viability (Neratinib + Navitoclax; first compound 0.03162 µM)	relative viability (Neratinib + Navitoclax; first compound 0.1 µM)	relative viability (Neratinib + Navitoclax; first compound 0.3162 µM)	relative viability (Neratinib + Navitoclax; first compound 1 µM)	relative viability (Neratinib + Crizotinib; first compound 0.01 µM)	relative viability (Neratinib + Crizotinib; first compound 0.03162 µM)	relative viability (Neratinib + Crizotinib; first compound 0.1 µM)	relative viability (Neratinib + Crizotinib; first compound 0.3162 µM)	relative viability (Neratinib + Crizotinib; first compound 1 µM)	relative viability (Neratinib + Dasatinib; first compound 0.01 µM)	relative viability (Neratinib + Dasatinib; first compound 0.03162 µM)	relative viability (Neratinib + Dasatinib; first compound 0.1 µM)	relative viability (Neratinib + Dasatinib; first compound 0.3162 µM)	relative viability (Neratinib + Dasatinib; first compound 1 µM)	relative viability (Neratinib + Vorinostat; first compound 0.01 µM)	relative viability (Neratinib + Vorinostat; first compound 0.03162 µM)	relative viability (Neratinib + Vorinostat; first compound 0.1 µM)	relative viability (Neratinib + Vorinostat; first compound 0.3162 µM)	relative viability (Neratinib + Vorinostat; first compound 1 µM)
NCI-H1355	0.912	1.06	0.825	0.843	0.618	1.12	1.11	0.949	0.846	0.31	0.754	0.745	0.629	0.584	0.39	0.724	0.649	0.591	0.602	0.447
HCC-827	1.02	1.09	1	0.924	0.201	0.986	0.996	0.778	0.7	0.176	0.421	0.39	0.366	0.248	0.169	0.929	0.975	0.817	0.395	0.205
HARA	1.17	1.12	0.562	0.922	0.644	1.19	1.09	0.731	0.782	0.489	0.303	0.312	0.196	0.155	0.148	0.584	0.656		0.577	0.355
HCC-366	1.08		0.975	1.11	1.02	0.653	0.766	0.46	0.48	0.519	0.688	0.716	0.615	0.588	0.689	0.337	0.408	0.345	0.381	0.312
NCI-H441	0.767	0.571	0.707	0.624	0.173	0.73	0.74	0.587	0.606	0.268	0.696	0.488	0.611	0.305	0.175	0.794	0.817	0.747	0.777	0.633
NCI-H2405	0.904	0.887	0.784	0.785	0.188	0.873	0.879	0.834	0.765	0.781	0.225	0.23	0.218	0.212	0.199	1.32	1.18	0.955	1.04	0.891
NCI-H1975	1.26	1.33	0.788	0.394	0.238	1.14	1.05	0.752	0.442	0.193	0.443	0.505	0.313	0.124	0.146	0.764	0.822	0.723	0.354	0.264
NCI-H647	1.14	1.41	1.05	1.12	0.383	1.21	0.978	0.852	0.835	0.427	0.171	0.198	0.207	0.129	0.0912	0.634	0.595	0.488	0.401	0.0941
A-427	1.06	0.984	0.907	0.879	0.46	1.07	0.936	0.819	0.924	0.566	0.895	0.74	0.734	0.673	0.571	0.958		0.849		0.857
LCLC-97TM1	0.402	0.381	0.633	0.511	0.294	0.344	0.33	0.314	0.242	0.136	1.05	0.859	0.858	0.726	0.693	0.985	0.822	0.762		0.48
HCC-15	0.697	0.72	0.666	0.625		0.843	0.906	0.829	0.707	0.648	0.655	0.676	0.555	0.644	0.517	0.954	0.85	0.811	0.724	0.672
NCI-H727	0.446	0.443		0.4	0.267	0.844	1.02		0.597	0.423	0.36	0.359	0.335	0.333	0.225	1.05	1.1		1.11	0.899
NCI-H596	0.998	1.01	0.954	1.04	0.787	0.944	1.09	1.04	0.903	0.861		0.659	0.749	0.5	0.436	0.5	0.641	0.631	0.622	0.73
NCI-H1651	1.2	1.17	0.878	0.84	0.742	0.927	0.944	0.86	0.846	0.564	0.424	0.505	0.371	0.452	0.32	0.605	0.582	0.505	0.508	0.513
NCI-H2085	1.18	1.14		0.88	0.804	0.992	0.928	0.823	0.664	0.483	0.261	0.264	0.254	0.21	0.234	0.825		0.687	0.623	0.696
COR-L 105	1.01	0.748	0.452	0.226	0.273	0.978	0.828	0.531	0.201	0.22	0.288	0.353	0.236	0.146	0.164	0.781	0.817	0.5	0.505	0.33
